Measurements reported in US8187826B2, “Quantitative analysis of in vivo mutation at the Pig-A locus” (Litron Laboratories, Ltd., priority 2008, dated 2012).

Tests used:
reticulocytes [1] = experiment: frequency of reticulocytes (% RET) in peripheral blood, flow cytometry, rats; assay type: in vivo; conditions: male Wistar rats, FIG. 5A
Description: These in vivo experiments utilized naïve rats and focused on the development of simple and reproducible methods for staining and analyzing peripheral blood RBCs and RETs for the GPI anchor-deficient phenotype. As reported elsewhere, it was confirmed that the GPI-anchored protein CD59 is highly and stably expressed on RBCs throughout their lifespan in circulation (Hernández-Campo et al., “Quantitative Analysis of the Expression of Glycosylphosphatidylinositol-Anchored Proteins During the Maturation of Different Hematopoietic Cell Compartments of Normal Bone Marrow,” Cytometry 72B:34-42 (2007), which is hereby incorporated by reference in its entirety). […] A second fluorescent reagent, SYTO® 13 dye, was chosen to differentially stain NCEs, RETs, and leukocytes. […] Secondly, it provided better fluorescent resolution between NCEs, RETs and blood leukocytes. The separation of these latter two populations is particularly important, because not all leukocytes express CD59, and these cells can therefore be mistaken for GPI anchor-deficient RBCs if they are not excluded from analysis. […]
The prior three-color staining strategy outlined above has been described in Bryce et al., “In vivo mutation assay based on the endogenous Pig-a locus”, Environ. […] Samples processed in this manner were evaluated with and without the anti-platelet antibody, and virtually identical values were consistently obtained. […]

[2] = system: GPI anchor-deficient RBCs (Pig-A locus); experiment: Pig-A mutation assay: frequency of GPI anchor-deficient (mutant phenotype) RBCs, rats; assay type: in vivo, Wistar rats
Description: (§1) These in vivo experiments utilized naïve rats and focused on the development of simple and reproducible methods for staining and analyzing peripheral blood RBCs and RETs for the GPI anchor-deficient phenotype. As reported elsewhere, it was confirmed that the GPI-anchored protein CD59 is highly and stably expressed on RBCs throughout their lifespan in circulation (Hernández-Campo et al., “Quantitative Analysis of the Expression of Glycosylphosphatidylinositol-Anchored Proteins During the Maturation of Different Hematopoietic Cell Compartments of Normal Bone Marrow,” Cytometry 72B:34-42 (2007), which is hereby incorporated by reference in its entirety). […] A second fluorescent reagent, SYTO® 13 dye, was chosen to differentially stain NCEs, RETs, and leukocytes. […] Secondly, it provided better fluorescent resolution between NCEs, RETs and blood leukocytes. The separation of these latter two populations is particularly important, because not all leukocytes express CD59, and these cells can therefore be mistaken for GPI anchor-deficient RBCs if they are not excluded from analysis. Early staining trials also included a third fluorescent reagent, anti-platelet antibody (biotinylated anti-CD61 plus streptavidin-Cy5-PE), which was added to positively identify platelets and prevent platelets from interfering with the RBC-centric analyses.
(§2) The prior three-color staining strategy outlined above has been described in Bryce et al., “In vivo mutation assay based on the endogenous Pig-a locus”, Environ. Molec. Mutagen. 49:256-264 (2008) as well as U.S. Patent Application Publ. […] Samples processed in this manner were evaluated with and without the anti-platelet antibody, and virtually identical values were consistently obtained. […]
(§3) The thresholding technique is based on the fact that the vast majority of Lympholyte® processed blood cells are mature RBCs. […] In this case, it is possible to set the threshold parameter to the nucleic acid dye-associated fluorescence channel (i.e., FL1 for SYTO® 13), as opposed to the more common forward scatter trigger. […]

[3] = system: GPI anchor-deficient RETs (Pig-A locus); experiment: Pig-A mutation assay: frequency of GPI anchor-deficient (mutant phenotype) RETs, rats; assay type: in vivo, Wistar rats
Description: as §1, §2, §3

reticulocytes [4] = experiment: frequency of reticulocytes (% RET) in peripheral blood, flow cytometry, mice; assay type: in vivo; conditions: male CD-1 mice, 40 mg/kg/day oral gavage Days 1-3, FIG. 8A
Description: (§4) The cross-species potential of this assay is illustrated by this example, whereby male CD-1 mice were treated on three consecutive days (Day 1, 2 and 3) with N-ethyl-N-nitrosourea (ENU) via oral gavage. The dose levels were 0 or 40 mg/kg/day. Blood harvests occurred on Days 4, 15, 30, 45 and 90 (n=5 per time point per dose). Whereas the rat experiments described in Examples 2-4 above were based on serial blood draws, the mouse experiments were not. Rather, each mouse provided only one blood specimen, thereby requiring like-treated groups of animals to generate the data for each time point studied. This was done to eliminate the possible confounding effect that repeat-blood sampling may have had on the results given the low total blood volume associated with this particular small animal model.

[5] = system: GPI anchor-deficient RBCs (Pig-A locus); experiment: Pig-A mutation assay: frequency of mutant phenotype RBCs, mice; assay type: in vivo; conditions: male CD-1 mice, 40 mg/kg/day oral gavage Days 1-3, FIG. 8B
Description: as §4

[6] = system: GPI anchor-deficient RETs (Pig-A locus); experiment: Pig-A mutation assay: frequency of mutant phenotype RETs, mice; assay type: in vivo; conditions: male CD-1 mice, 40 mg/kg/day oral gavage Days 1-3, FIG. 8C
Description: as §4

SMILES: CCN(N=O)C(N)=O [ENU, N-ethyl-N-nitrosourea]
- frequency of reticulocytes (% RET) (reticulocytes [1]; 20 or 40 mg/kg/day oral gavage Days 1-3, vs vehicle control): mean % RET are reduced in a dose-dependent manner
- frequency of reticulocytes (% RET), rebound effect (reticulocytes [1]; high dose group (40 mg/kg/day oral gavage Days 1-3), vs control values): “overshoots” the control values
- frequency of mutant phenotype RBCs ([2]; male Wistar rats, 1, 5, 10 or 15 mg/kg/day oral gavage on 14 consecutive days, blood Day 23, FIG. 7A): very robust, dose-related increase in mutant cells
- frequency of mutant phenotype (GPI anchor-deficient) RBCs ([2]; male Wistar rats, 20 or 40 mg/kg/day oral gavage Days 1-3, Day 15 through Day 90, FIG. 5B): Robust, dose-related increases in mutant cell frequency
- day on which maximal mutant RBC frequency is reached ([2]; male Wistar rats, 20 or 40 mg/kg/day oral gavage Days 1-3, plateau thereafter, FIG. 5B): ≤ 45 days
- frequency of mutant phenotype RETs ([3]; male Wistar rats, 1, 5, 10 or 15 mg/kg/day oral gavage on 14 consecutive days, blood Day 23, FIG. 7B): very robust, dose-related increase in mutant cells
- day on which maximal or near-maximal mutant RET frequency is reached ([3]; male Wistar rats, 20 or 40 mg/kg/day oral gavage Days 1-3, FIG. 5C): 15 days
- frequency of mutant phenotype (GPI anchor-deficient) RETs ([3]; male Wistar rats, 20 or 40 mg/kg/day oral gavage Days 1-3, evident by Day 15, FIG. 5C): Robust, dose-related increases in mutant cell frequency
- frequency of reticulocytes (% RET) (reticulocytes [4]; Day 4): significantly reduced
- frequency of reticulocytes (% RET), rebound effect (reticulocytes [4]; Day 15, vs control values): “overshoots” the control values
- frequency of mutant phenotype RBCs ([5]; by Day 15): increased mutant cell frequencies
- day on which maximum mutant RBC frequency is apparent ([5]; stable thereafter through Day 90): 30 days
- frequency of mutant phenotype RETs ([6]; Day 15): greatly elevated
- frequency of mutant phenotype RETs ([6]; through Day 90): Robust increases in mutant cell frequency
